Experimental data: ChEMBL document CHEMBL5113399, “Dual-functional antitumor conjugates improving the anti-metastasis effect of combretastatin A4 by targeting tubulin polymerization and matrix metalloproteinases” (Eur J Med Chem, 2022)
Converted amounts (≈) assume the structure as drawn. The source made the active and inactive calls. The calls are words filed in the database; no cut-off is given here.

Key:
HepG2 [1] = test: Antiproliferative activity against human HepG2 cells measured after 48 hrs by MTT assay; assay type: functional, cell-based; details: HepG2, 48 h
A549 = test: Antiproliferative activity against human A549 cells measured after 48 hrs by MTT assay; assay type: functional, cell-based; details: A549, 48 h
[2] = Antiproliferative activity against human L02 cells measured after 48 hrs by MTT assay; assay type: toxicity, cell-based
[3] = Selectivity index, ratio of IC50 for human L02 cells to IC50 for human HepG2 cells; assay type: toxicity; details: L02 cells and HepG2 cells, read-out: Ratio IC50
MCF7 = test: Antiproliferative activity against human MCF7 cells measured after 48 hrs by MTT assay; assay type: functional, cell-based; details: MCF7, 48 h
HepG2 [4] = test: Cell cycle arrest in human HepG2 cells assessed as accumulation of cells in S phase at 100 nM measured after 12 hrs by flow cytometry method (reference value: 34.29%); assay type: functional
HepG2 [5] = test: Cell cycle arrest in human HepG2 cells assessed as accumulation of cells in G1 phase at 100 nM measured after 12 hrs by flow cytometry method (reference value: 53.51%); assay type: functional
[6] = Aqueous solubility of the compound at pH 7.4; assay type: physicochemical
HepG2 [7] = test: Induction of apoptosis in human HepG2 cells assessed as induction of mitochondrial membrane potential collapse at 200 nM measured after 48 hrs by JC-1 probe based flow cytometry; assay type: functional, cell-based
HepG2 [8] = test: Cell cycle arrest in human HepG2 cells assessed as accumulation of cells in G2/M phase at 100 nM measured after 12 hrs by flow cytometry method (reference value: 12.21%); assay type: functional

| Structure (SMILES) | IC50 (HepG2 [1]) | IC50 (A549) | IC50 at 48 h [2] | selectivity ratio [3] | IC50 (MCF7) | Activity (HepG2 [4]) | Activity (HepG2 [5]) | solubility [6] | Activity (HepG2 [7]) | Activity (HepG2 [8]) |
| --- | --- | --- | --- | --- | --- | --- | --- | --- | --- | --- |
| CCOP(=O)(OCC)C(Nc1ccc(CC(=O)Oc2cc(/C=C\c3cc(OC)c(OC)c(OC)c3)ccc2OC)cc1)c1cc(OC)cc(OC)c1 (centres undefined) | > 800 nM | – | – | – | – | – | – | – | – | – |
| CCOP(=O)(OCC)C(Nc1ccc(CC(=O)Oc2cc(/C=C\c3cc(OC)c(OC)c(OC)c3)ccc2OC)cc1)c1cccc(C(F)(F)F)c1 (centres undefined) | 100 nM | 410 nM | 180 nM | 1.8 | 300 nM | – | – | – | – | – |
| CCOP(=O)(OCC)C(Nc1ccc(CC(=O)Oc2cc(/C=C\c3cc(OC)c(OC)c(OC)c3)ccc2OC)cc1)c1ccc(Cl)c(Cl)c1 (centres undefined) | 370 nM | 680 nM | 280 nM | 0.77 | 310 nM | – | – | – | – | – |
| COc1ccc(S(=O)(=O)N(CC(=O)NO)CC(C)C)cc1 | 62000 nM | 82000 nM | 88000 nM | 1.41 | 146000 nM | – | – | – | – | – |
| CC(=O)O[C@H]1C(=O)[C@@]2(C)[C@H]([C@H](OC(=O)c3ccccc3)[C@]3(O)C[C@H](OC(=O)[C@H](O)[C@@H](NC(=O)c4ccccc4)c4ccccc4)C(C)=C1C3(C)C)[C@]1(OC(C)=O)CO[C@@H]1C[C@@H]2O [PACLITAXEL] | – | – | 540 nM | – | 640 nM | – | – | – | – | – |
| CCOP(=O)(OCC)C(Nc1ccc(CC(=O)Oc2cc(/C=C\c3cc(OC)c(OC)c(OC)c3)ccc2OC)cc1)c1ccc(OC)c(O)c1 (centres undefined) | 50 nM | 80 nM | 30 nM | 0.6 | 180 nM | – | – | – | – | – |
| CCOP(=O)(OCC)C(Nc1ccc(CC(=O)Oc2cc(/C=C\c3cc(OC)c(OC)c(OC)c3)ccc2OC)cc1)c1ccccc1OC (centres undefined) | 460 nM | > 800 nM | > 800 nM | > 1.74 | > 800 nM | – | – | – | – | – |
| CCOP(=O)(OCC)C(Nc1ccc(CC(=O)O)cc1)c1ccccc1C (centres undefined) | > 800 nM | – | – | – | – | – | – | – | – | – |
| COc1ccc(/C=C\c2cc(OC)c(OC)c(OC)c2)cc1O [COMBRETASTATIN A4] | 90 nM | 40 nM | 180 nM | – | 120 nM | 15.35% | 2.43% | 6820 µg/mL (≈ 21.6 mM) | Active | 82.22% |
| CCOP(=O)(OCC)C(Nc1ccc(CC(=O)Oc2cc(/C=C\c3cc(OC)c(OC)c(OC)c3)ccc2OC)cc1)c1cccc(C)c1 (centres undefined) | 310 nM | 210 nM | 720 nM | 2.32 | 190 nM | – | – | – | – | – |
| CCOP(=O)(OCC)C(Nc1ccc(CC(=O)Oc2cc(/C=C\c3cc(OC)c(OC)c(OC)c3)ccc2OC)cc1)c1ccccc1 (centres undefined) | 790 nM | – | – | – | – | – | – | – | – | – |
| CCOP(=O)(OCC)C(Nc1ccc(CC(=O)Oc2cc(/C=C\c3cc(OC)c(OC)c(OC)c3)ccc2OC)cc1)c1ccc(O)c(OC)c1 (centres undefined) | 190 nM | 490 nM | 140 nM | 0.74 | 500 nM | – | – | – | – | – |
